“Also recorded” adds a separate entry of the source.
Assays:
[1] = test system: panel of cytokines and related biochemicals; test: Plasma cytokine changes induced by 5-FU, multiplex ELISA on plasma of Experiment III; format: in vivo, C57BL/6 female mice; conditions: Day 3; 200 mg/kg 5-FU ip plus 6000 mg/kg TK-90 osmotic pump over 24 hours; vs 5-FU alone
Procedure: The chemotherapeutic challenge was cytokine changes induced by 5-FU treatment.
Plasma samples from Experiment III were analyzed for a panel of cytokines and related biochemicals by multiplex ELISA. […] IL-1B, TNF-α, and IL-6 are pro-inflammatory cytokines known to be elevated with mucositis. (Logan et al., “The role of pro-inflammatory cytokines in cancer treatment-induced alimentary tract mucositis: pathobiology, animal models and cytotoxic drugs,” Cancer Treat Rev. (2007) 33(5):448-60; Ong et al., “Pro-inflammatory cytokines play a key role in the development of radiotherapy-induced gastrointestinal mucositis,” Radiat Oncol. (2010) (16) 5:22). TK-90 reverses elevation of all three of these cytokines (FIGS. 5, 6 and 7). IL-2 is a pleiotropic cytokine that drives growth and activation of inflammatory cells such as T-cells, NK cells, etc. IL-9 and IL-15 signal through IL-2. TK-90 reverse the 5-FU induced elevation of all three of these cytokines (FIGS. 8, 9, and 10). IL-12 is a cytokine linked to generation of an immune response. Another cytokine associated with generation of an immune response is IL-5. TK-90 reverse the 5-FU induced elevation of IL-12 and IL5 (FIGS. 11, 12 and 13). IL-10 is a cytokine that plays a central role in limiting host immune response. TK-90 reverses the elevation of IL-10 induced by the 5-FU treatment possibly allowing an immune response to proceed to potentially clear damaged tissue (FIG. 14). GM-CSF and M-CSF both stimulate cell mediators of inflammation. TK-90 reverse the 5-FU induced elevation of both GM-CSF and […] (FIGS. 15 and 16). MIP-2, and KC are chemokines that function much like GM-CSF, and M-CSF to stimulate cell mediators of inflammation TK-90 reverse the 5-FU induced elevation of the chemokines (FIGS. 17 and 18). 5-FU decreases eotaxin, a chemokine that recruits immune-related mediators like eosinophils into inflammatory sites (FIG. 19). TK-90 reverses this decrease.

[2] = test system: plasma citrulline; test: Plasma citrulline after 5-FU (LC/MS/MS-Isotope assay), surrogate marker for mucositis; format: in vivo, C57BL/6 female mice; conditions: Day 3
Procedure: The chemotherapeutic challenge was diminished plasma citrulline by 5-FU treatment. The aim of this study was to explore whether a uridine phosphorylase inhibitor could prevent lowered plasma citrulline induced by 5-FU.
TK-90 solution was prepared at a concentration of 500 mg/mL in sterile PBS. Eight animals were used for Groups 1,2 and 3.
Osmotic pumps were placed inside the subcutaneous tunnel. Incision was sealed with Vetbond tissue adhesive and wound clips.
Blood collections were done to animals anesthetized with ketamine (ip 100 mg/kg). Whole blood (˜0.8 mL) was drawn through the retro-orbital sinus using a heparin coated micro-hematocrit tube and collected into a heparin microtainer tube. Blood samples were transferred into fresh 1.5 mL microcentrifuge tubes and centrifuged for 5 minutes at 10,000×g using an Eppendorf Minispin Plus stored in a 4° C. refrigerator. Following collection of the plasma samples, the animals were sacrificed on Day 3 by cervical dislocation and properly disposed. […]
Thawed plasma samples from the study were analyzed for citrulline using a published LC/MS/MS-Isotope assay. (Jones et al., Development and validation of a LC-MS/MS assay for quantitation of plasma citrulline for application to animal models of the acute radiation syndrome across multiple species,” Anal Bioanal Chem. (2014) 406(19):4663-75).

[3] = test system: weight loss induced by 5-FU; conditions: 400 mg/kg 5-FU ip Day 0 plus 5333 mg/kg sc TK-90 by osmotic pump over 24 hours; compared to 5-FU alone
Procedure: The chemotherapeutic challenge was weight loss induced by 5-FU (FIG. 2). […] The aim of this study was to explore whether 5-FU combined with a uridine phosphorylase inhibitor provides protection from weight loss, a principal toxicity of 5-FU.
Groups of CD-1 female mice entrained to light:dark (12:12 hours), and given food and water ad libitum, were used for this experiment. The mean weight of the mice at the start of the experiment was approximately 20 g. Control mice were injected ip with sterile PBS, the vehicle control (Group 1). Group 2 and Group 3 mice were injected, ip, with 400 mg/kg 5-FU (Sigma) dissolved in PBS. A 24-hour osmotic pump (ALZET® micro-osmotic pump, Alza Co) was implanted into Group 3 animals. The pumps were loaded with 200 μL (2001D osmotic pump) of a 500 mg/mL solution of TK-90 (FIG. 2) in PBS. The TK-90 dose over the 24-hour infusion was 5333 mg/kg. The four animals were used for Group 1 and 8 animals were used for Groups 2 and 3.
For the implantation of the osmotic pump, animals were anesthetized with 100 mg/kg ketamine prior to pump implantation. […]
Animals were sacrificed on Day 5 by cervical dislocation and properly disposed. Animal weights were recorded daily for 6 days and the percent difference between Day 0 and Day 5 at termination was calculated.

[4] = test system: uridine; test: Systemic uridine after administration of TK-90; format: in vivo
[5] = Side effects of TK-90 (clinical trials); conditions: in vivo
[6] = test system: 5-FU induced weight loss; test: Protection from 5-FU induced weight loss by uridine alone or uridine plus TK-90; format: in vivo, CD-1 mice
Text: Weight loss is one of the cardinal features of mucositis. […] Controls include PBS alone at times mimicking the time for 5-FU and combined uridine and TK-90 treatments. There were n=6 animals in all groups.

[7] = cited from earlier work
[8] = man and animals; cited from earlier work
[9] = patients who receive 5-FU for their disease; cited from earlier work

## Cc1cn2c(nc1=O)O[C@H]1[C@H](O)[C@@H](CO)O[C@H]12 [TK-90]
[1]
  plasma GM-CSF: highly significantly different; also recorded: reverses the increase in plasma GM-CSF
  plasma IL-1β: reverses the increase in plasma IL-1β
  plasma IL-2: reverses the increase in plasma IL-2
  plasma IL-6: reverses the increase in plasma IL-6
  plasma IL-9: highly significantly different; also recorded: reverses the increase in plasma IL-9
  plasma IL-10: highly significantly different; also recorded: reverses the increase in plasma IL-10
  plasma IL-12 (P40): highly significantly different; also recorded: reverses the increase in plasma IL-12 (P40)
  plasma IL-12 (P70): highly significantly different; also recorded: reverses the increase in plasma IL-12 (P70)
  plasma IL-15: highly significantly different; also recorded: reverses the increase in plasma IL-15
  plasma KC (keratinocytes-derived chemokine): significantly different; also recorded: reverses the increase in plasma KC
  plasma M-CSF: reverses the increase in plasma M-CSF
  plasma MIP-2: reverses the increase in plasma MIP-2
  plasma TNF-α: reverses the increase in plasma TNF-α
  plasma eotaxin: reverses the decrease in plasma eotaxin
[2]; 200 mg/kg 5-FU ip plus 6000 mg/kg TK-90 by osmotic pump over 24 hours starting 4 hours post 5-FU, compared to 5-FU alone
  plasma citrulline concentration: reverses the decrease in plasma citrulline; also recorded: robust, statistically significant rebound in plasma citrulline
[3]
  percent weight change on Day 5 versus Day 0: protected from the weight loss
[4]
  systemic uridine: increases systemic uridine
[5]
  side effects: no known side effects
[6]; 80 mg/kg 5-FU qdx5 ip with 750 mg/kg uridine and 120 mg/kg TK-90 bid, compared to 5-FU alone
  percent change in weight Day 5 versus Day 0: protected from the weight loss

## O=c1ccn([C@@H]2O[C@H](CO)[C@@H](O)[C@H]2O)c(=O)[nH]1 [uridine]
[7]; continuous infusion
  toxicity of continuous infusions of high-dose uridine: high fever, cellulitis, and superior vena cava syndrome
[7]; oral, high-dose, clinical studies
  toxicity of orally administered uridine: considerable GI dysfunction; also recorded: severe patient diarrhea, phlebitis and pyrogenic reactions
[8]
  half-life of administered uridine: ~3 min
[6]; 80 mg/kg 5-FU qdx5 ip with 750 mg/kg uridine bid, compared to 5-FU alone
  percent change in weight Day 5 versus Day 0: statistically significant but much less

## O=c1[nH]cc(F)c(=O)[nH]1 [Compound 5-FU, 5-flurouracil]
[9]
  patients who develop mucositis: Approximately 80%
[2]; 200 mg/kg 5-FU ip alone, compared to PBS vehicle control
  plasma citrulline concentration: significant reduction in citrulline
[6]; 80 mg/kg 5-FU qdx5 ip alone, compared to PBS vehicle control
  percent change in weight Day 5 versus Day 0: robust weight loss
